Measured values published in patent US10945435B2, “Imidazopyrimidine derivatives with sulfur containing phenyl and pyridyl substituents” (SYNGENTA PARTICIPATIONS AG, priority 2017, dated 2021).

Experiments:
[1] = system: Frankliniella occidentalis (Western Flower Thrips); test: Example B8 Frankliniella occidentalis feeding/contact activity; type: in vivo; details: foliar, 168 h, application rate of 200 ppm, mixed-age population on sprayed sunflower leaf discs, 7 days after infestation
Method: Frankliniella occidentalis (Western Flower Thrips): Feeding/Contact Activity
Sunflower leaf discs were placed on agar in 24-well microtiter plates and sprayed with aqueous test solutions prepared from 10,000 DMSO stock solutions. After drying the leaf discs were infested with a Frankliniella population of mixed ages. The samples were assessed for mortality 7 days after infestation.

[2] = system: Spodoptera littoralis (Egyptian Cotton Leaf Worm); test: Example B16 Spodoptera littoralis feeding/contact activity; type: in vivo; details: foliar, 72 h, application rate of 200 ppm, L1 larvae on sprayed cotton leaf discs, 3 days after infestation
Method: Spodoptera littoralis (Egyptian Cotton Leaf Worm): Feeding/Contact Activity
(§1) Cotton leaf discs were placed onto agar in 24-well microtiter plates and sprayed with aqueous test solutions prepared from 10,000 ppm DMSO stock solutions. After drying the leaf discs were infested with five L1 larvae. The samples were assessed for mortality 3 days after infestation.

[3] = system: Euschistus heros (Neotropical Brown Stink Bug); test: Example B5 Euschistus heros mortality and growth inhibition; type: in vivo; details: 120 h, application rate of 200 ppm, N2 nymphs on sprayed soybean leaves, 5 days after infestation, read-out: effect in at least one of the two categories (mortality or growth inhibition)
Method: Euschistus heros (Neotropical Brown Stink Bug)
Soybean leaves on agar in 24-well microtiter plates were sprayed with aqueous test solutions prepared from 10,000 ppm DMSO stock solutions. After drying the leaves were infested with N2 nymphs. The samples were assessed for mortality and growth inhibition in comparison to untreated samples 5 days after infestation.

[4] = system: Plutella xylostella (Diamond Back Moth); test: Example B13 Plutella xylostella mortality and growth inhibition; type: in vivo; details: 120 h, application rate of 200 ppm, L2 larvae on treated artificial diet, 5 days after infestation, read-out: effect in at least one of the two categories (mortality or growth inhibition)
Method: Plutella xylostella (Diamond Back Moth)
(§2) 24-well microtiter plates with artificial diet were treated with aqueous test solutions prepared from 10,000 ppm DMSO stock solutions by pipetting. After drying, the plates were infested with L2 larvae (10 to 15 per well). The samples were assessed for mortality and growth inhibition in comparison to untreated samples 5 days after infestation.

[5] = system: Plutella xylostella (Diamond Back Moth); test: Example B12 Plutella xylostella feeding/contact activity; type: in vivo; details: 120 h, application rate of 200 ppm, L2 larvae on treated artificial diet, 5 days after infestation
Method: Plutella xylostella (Diamond Back Moth): Feeding/Contact Activity
24-well microtiter plates with artificial diet were treated with aqueous test solutions prepared from 10,000 ppm DMSO stock solutions by pipetting. After drying, the plates were infested with L2 larvae (10 to 15 per well). The samples were assessed for mortality 5 days after infestation.

[6] = system: Bemisia tabaci (Cotton White Fly); test: Example B1 Bemisia tabaci feeding/contact activity; type: in vivo; details: foliar, 144 h, application rate of 200 ppm, adult white flies on sprayed cotton leaf discs, 6 days after incubation
Method: Bemisia tabaci (Cotton White Fly): Feeding/Contact Activity
Cotton leaf discs were placed on agar in 24-well microtiter plates and sprayed with aqueous test solutions prepared from 10,000 ppm DMSO stock solutions. After drying the leaf discs were infested with adult white flies. The samples were checked for mortality 6 days after incubation.

[7] = system: Diabrotica balteata (Corn Root Worm); test: Example B4 Diabrotica balteata mortality; type: in vivo; details: 96 h, application rate of 200 ppm, L2 larvae on sprayed maize sprouts, 4 days after infestation
Method: (§3) Diabrotica Balteata (Corn Root Worm):
(§4) Maize sprouts placed onto an agar layer in 24-well microtiter plates were treated with aqueous test solutions prepared from 10,000 ppm DMSO stock solutions by spraying. After drying, the plates were infested with L2 larvae (6 to 10 per well). The samples were assessed for mortality 4 days after infestation.

[8] = system: Diabrotica balteata (Corn Root Worm); test: Example B2 Diabrotica balteata mortality and growth inhibition; type: in vivo; details: 96 h, application rate of 200 ppm, L2 larvae on sprayed maize sprouts, 4 days after infestation, read-out: effect in at least one of the two categories (mortality or growth inhibition)
Method: Diabrotica balteata (Corn Root Worm)
as §4, with “mortality and growth inhibition in comparison to untreated samples” for “mortality”

[9] = system: Euschistus heros (Neotropical Brown Stink Bug); test: Example B7 Euschistus heros feeding/contact activity; type: in vivo; details: 120 h, application rate of 200 ppm, N2 nymphs on sprayed soybean leaves, 5 days after infestation
Method: Euschistus heros (Neotropical Brown Stink Bug): Feeding/Contact Activity
Soybean leaves on agar in 24-well microtiter plates were sprayed with aqueous test solutions prepared from 10,000 ppm DMSO stock solutions. After drying the leaves were infested with N2 nymphs. The samples were assessed for mortality 5 days after infestation.

[10] = system: Myzus persicae (Green Peach Aphid); test: Example B9 Myzus persicae feeding/contact activity; type: in vivo; details: foliar, 144 h, application rate of 200 ppm, mixed-age aphids on sprayed sunflower leaf discs, 6 days after infestation
Method: Myzus persicae (Green Peach Aphid): Feeding/Contact Activity
Sunflower leaf discs were placed onto agar in a 24-well microtiter plate and sprayed with aqueous test solutions prepared from 10,000 ppm DMSO stock solutions. After drying, the leaf discs were infested with an aphid population of mixed ages. The samples were assessed for mortality 6 days after infestation.

[11] = system: Spodoptera littoralis (Egyptian Cotton Leaf Worm); test: Example B15 Spodoptera littoralis growth inhibition activity; type: in vivo; details: foliar, 72 h, application rate of 200 ppm, L1 larvae on sprayed cotton leaf discs, 3 days after infestation, read-out: control (growth inhibition)
Method: Spodoptera littoralis (Egyptian Cotton Leaf Worm): Growth Inhibition Activity
as §1, with “growth inhibition in comparison to untreated samples” for “mortality”, “infestation. Control of Spodoptera littoralis by a test sample is given when the growth inhibition is higher than the untreated sample.” for “infestation.”

[12] = system: Spodoptera littoralis (Egyptian Cotton Leaf Worm); test: Example B14 Spodoptera littoralis anti-feeding activity; type: in vivo; details: foliar, 72 h, application rate of 200 ppm, L1 larvae on sprayed cotton leaf discs, 3 days after infestation, read-out: control (anti-feeding effect)
Method: Spodoptera littoralis (Egyptian Cotton Leaf Worm): Anti-Feeding Activity
as §1, with “anti-feeding effect in comparison to untreated samples” for “mortality”, “infestation. Control of Spodoptera littoralis by a test sample is given when the anti-feedant effect is higher than the untreated sample.” for “infestation.”

[13] = system: Plutella xylostella (Diamond Back Moth); test: Example B11 Plutella xylostella growth inhibition activity; type: in vivo; details: 120 h, application rate of 200 ppm, L2 larvae on treated artificial diet, 5 days after infestation
Method: Plutella xylostella (Diamond Back Moth): Growth Inhibition Activity
as §2, with “for” for “for mortality and”, “infestation. Control of Plutella xylostella by a test sample is given when the growth inhibition is higher than the untreated sample.” for “infestation.”

[14] = system: Myzus persicae (Green Peach Aphid); test: Example B10 Myzus persicae systemic activity; type: in vivo; details: 144 h, test rate of 24 ppm, roots of infested pea seedlings in test solution, 6 days
Method: Myzus persicae (Green Peach Aphid). Systemic Activity
Roots of pea seedlings infested with an aphid population of mixed ages were placed directly into aqueous test solutions prepared from 10,000 DMSO stock solutions. The samples were assessed for mortality 6 days after placing seedlings into test solutions.

[15] = system: Diabrotica balteata (Corn Root Worm); test: Example B3 Diabrotica balteata growth inhibition; type: in vivo; details: 96 h, application rate of 200 ppm, L2 larvae on sprayed maize sprouts, 4 days after infestation
Method: as §3
as §4, with “growth inhibition in comparison to untreated samples” for “mortality”, “infestation. Control of Diabrotica balteata by a test sample is given when the growth inhibition is higher than in the untreated sample.” for “infestation.”

| SMILES | melting point [°C] | mortality at 200 ppm [1] [%] | mortality at 200 ppm [2] [%] | percent effect (mortality or growth inhibition) at 200 ppm [3] [%] | percent effect (mortality or growth inhibition) at 200 ppm [4] [%] | mortality at 200 ppm [5] [%] | mortality at 200 ppm [6] [%] | mortality at 200 ppm [7] [%] | percent effect (mortality or growth inhibition) at 200 ppm [8] [%] | mortality at 200 ppm [9] [%] | mortality at 200 ppm [10] [%] | inhibition at 200 ppm [11] [%] | pest or weed control at 200 ppm [12] [%] | inhibition at 200 ppm [13] [%] | mortality at 24 ppm [14] [%] | inhibition at 200 ppm [15] [%] |
| --- | --- | --- | --- | --- | --- | --- | --- | --- | --- | --- | --- | --- | --- | --- | --- | --- |
| CCS(=O)(=O)c1cc(OCCS(C)(=O)=O)cnc1-c1cn2cnc(C(F)(F)F)cc2n1 [Compound P24, 2-[3-ethylsulfonyl-5-(2-methylsulfonylethoxy)-2-pyridyl]-7-(trifluoromethyl)imidazo[1,2-c]pyrimidine] | 209 to 210 |  |  |  |  |  |  |  |  |  |  |  |  |  |  |  |
| CCS(=O)(=O)c1cc(OC(C)(C)C#N)cnc1-c1cn2cnc(SC(F)(F)F)cc2n1 [Compound P17, 2-[[5-ethylsulfonyl-6-[7-(trifluoromethylsulfanyl)imidazo[1,2-c]pyrimidin-2-yl]-3-pyridyl]oxy]-2-methyl-propanenitrile] |  | ≥ 80 | ≥ 80 | ≥ 80 | ≥ 80 | ≥ 80 | ≥ 80 | ≥ 80 | ≥ 80 | ≥ 80 | ≥ 80 | ≥ 80 | ≥ 80 |  |  |  |
| CCS(=O)(=O)c1cc(OCC(F)F)cnc1-c1cn2cnc(C(F)(F)F)cc2n1 [Compound P8, 2-[5-(2,2-difluoroethoxy)-3-ethylsulfonyl-2-pyridyl]-7-(trifluoromethyl)imidazo[1,2-c]pyrimidine] |  | ≥ 80 | ≥ 80 | ≥ 80 | ≥ 80 | ≥ 80 | ≥ 80 | ≥ 80 | ≥ 80 | ≥ 80 | ≥ 80 |  | ≥ 80 | ≥ 80 | ≥ 80 | ≥ 80 |
| CCS(=O)(=O)c1cc(OCS(C)(=O)=O)cnc1-c1cn2cnc(C(F)(F)C(F)(F)F)cc2n1 [Compound P26, 2-[3-ethylsulfonyl-5-(methylsulfonylmethoxy)-2-pyridyl]-7-(1,1,2,2,2-pentafluoroethyl)imidazo[1,2-c]pyrimidine] | 248 to 250 |  |  |  |  |  |  |  |  |  |  |  |  |  |  |  |
| CCS(=N)(=O)c1cc(OC(C)(C)C#N)cnc1-c1cn2cnc(C(F)(F)F)cc2n1 (centres unmarked) [Compound P20, 2-[[5-(ethylsulfonimidoyl)-6-[7-(trifluoromethyl)imidazo[1,2-c]pyrimidin-2-yl]-3-pyridyl]oxy]-2-methyl-propanenitrile] |  |  | ≥ 80 |  | ≥ 80 | ≥ 80 | ≥ 80 | ≥ 80 | ≥ 80 |  | ≥ 80 |  | ≥ 80 | ≥ 80 | ≥ 80 | ≥ 80 |
| CCS(=O)(=O)c1cc(OCC(F)(F)F)cnc1-c1nc2cc(C(F)(F)F)ncn2c1Br [Compound P25, 3-bromo-2-[3-ethylsulfonyl-5-(2,2,2-trifluoroethoxy)-2-pyridyl]-7-(trifluoromethyl)imidazo[1,2-c]pyrimidine] | 86 to 88 |  |  |  |  |  |  |  |  |  |  |  |  |  |  |  |
| CCS(=O)(=O)c1cc(O)cnc1-c1cn2cnc(C(F)(F)F)cc2n1 [Compound P10, 5-ethylsulfonyl-6-[7-(trifluoromethyl)imidazo[1,2-c]pyrimidin-2-yl]pyridin-3-ol] | 229 to 232 |  |  |  |  |  |  |  |  |  |  |  |  |  |  |  |
| CCS(=N)(=O)c1cc(OC(C)(C)C#N)cnc1-c1cn2cnc(C(F)(F)C(F)(F)F)cc2n1 (centres unmarked) [Compound P19, 2-[[5-(ethylsulfonimidoyl)-6-[7-(1,1,2,2,2-pentafluoroethyl)imidazo[1,2-c]pyrimidin-2-yl]-3-pyridyl]oxy]-2-methyl-propanenitrile] |  | ≥ 80 | ≥ 80 | ≥ 80 | ≥ 80 | ≥ 80 | ≥ 80 | ≥ 80 | ≥ 80 | ≥ 80 | ≥ 80 | ≥ 80 | ≥ 80 | ≥ 80 | ≥ 80 |  |
| CCS(=O)(=O)c1cc(O)cnc1-c1nc2cc(C(F)(F)F)ncn2c1Br [Compound P27, 6-[3-bromo-7-(trifluoromethyl)imidazo[1,2-c]pyrimidin-2-yl]-5-ethylsulfonyl-pyridin-3-ol] | 230 to 234 |  |  |  |  |  |  |  |  |  |  |  |  |  |  |  |
